Several values for one entry are separate records, joined by “and”; a condition that tells them apart may be missing. Equal values may be shown once. Entries after “also recorded” stand apart in the source; their conditions may differ.
Experiments:
[1] = tested on: mouse macrophages (Balb C); assay: In vitro cytotoxicity using mouse macrophages (acute toxicity), MTT assay; format: cell-based
Procedure: (§1) All steroids were dissolved in ethanol and diluted to appropriate concentration: 0.01, 0.5, 1.0, 2.0, 5.0 μg/ml from the two stock solution of 1 mg/ml and […]. Stocks were maintained at room temperature.
(§2) […] Approximately 1 ml of Phosphate buffer saline preincubated at 37° C. was injected into cavity. The abdomen was lavaged for 10 min and fluid along with macrophages were taken out using a syringe into polypropylene tube. The phosphate solution was spun at 800 rpm for 5-10 min and cells were resuspended in 1 ml RPMI media. Cell number was counted using haemocytometer.
(§3) Cells (mouse macrophages) were plated at a density of 5×10^3 cells/well in 96 plate at 37° C. in 5% CO2. Cells were exposed in graded concentration of compounds at designated various concentration. Each concentration was tested in triplicate wells. After 48 hr fresh MTT 20 μl (1 mg/ml) was added directly to all the wells and culture was incubated for 4 hr at 37° C. During this incubation, MTT was converted into a water insoluble formazan complex by metabolic activity of viable cells. Formazan crystal were taken and dissolved in 100 μl of DMSO, which give light pink colour. The absorbance of each well was read on Elisa plate reader (Merck) at 570 nm. The spectrometer was calibrated to zero absorbance using culture medium without cells. The relative cell viability (%) related to control well containing cell culture medium without drug was calculated by [A]test/[A]control×100. % Cell Viability=[A]test/[A]control×100 [A]test=absorbance test sample [A]control=absorbance control sample Results: LC50: Concentration of the Compound in μg/ml (μm), Lethal to 50% Population of Cells.
(§4) The assay quantifies the viable cells, after […] incubation of cells with five different concentrations.

[2] = as above; format: cell-based; details: both sexes, Balb C; mouse macrophages, from linear equation of MTT data; read-out: LC50 (concentration lethal to 50% population of cells)
Procedure: as §1, §2, §3, §4

[3] = tested on: human prostate cancer cell line (DU-145); assay: Growth inhibitory activity assay (MTT assay), in vitro antiproliferative activity; format: cell-based; details: DU-145 cells; for % growth inhibition (mean ± SEM) / inhibition at 0.01 µg/mL / inhibition at 0.5 µg/mL / inhibition at 1 µg/mL / inhibition at 2 µg/mL / inhibition at 5 µg/mL: 48 hr; for antiproliferative activity (in words): 0.01-5.0 μg/ml; for inhibition at 0.01 µg/mL / inhibition at 0.5 µg/mL / inhibition at 1 µg/mL / inhibition at 2 µg/mL / inhibition at 5 µg/mL: Homo sapiens, DU-145, 48 h, read-out: % growth inhibition (mean ± SEM)
Procedure: 1) In Vitro Antiproliferative Activity Against Human Prostate Cancer Cell Line (DU-145)
Compounds were screened for antiproliferative activity on human prostate cell line DU-145 at National Centre of Human Genome Studies and Research. Panjab University, Chandigarh. All the compounds (10 to 16), Finasteride and starting material (9) were tested at five different concentrations: 0.01, 0.5, 1.0, 2.0, and 5.0 μg/ml. Finasteride was the positive control in this growth inhibitory assay.
Growth Inhibitory Activity Assay (MTT Assay)
We investigated the effect of newly synthesized compounds on cell growth inhibition using MTT assay. This assay quantifies the viable cells by observing the reduction of tetrazolium salt, MTT to formazan crystals by the live cells. Based on the absorbance of the cell sample after the test is carried out, cell viable can be measured [Loveland, B. E.; Jones, T. G.; Mackay. I. R.; Vaillant, F.; Wang, Z. X.; Hertzog, P. J. Biochem. International 1992, 27, 501 and Wright, S. A.; Thomas, L. N.; Douglas, R. C.; Lazier, C. B.; Rittmaster, R. S. J. Clin. Invest. 1996, 98, 2558]. Cells were cultured at a density of 5×10^3 cells/well in 96 well plates at 37° C. in 5.0% CO2 atmosphere and were allowed to attach for 24 hr. The cells were treated in triplicate with graded concentration of sample and reference drug Finasteride at 37° C. for 48 hr. A 20 μl aliquot of MTT solution was added directly to all the appropriate wells. Following 4 hr of incubation at […], the media was removed and formazan crystals, which results from the reduction of MTT by active cell were dissolved in 100 μl DMSO and vigorously mixed to dissolve the reacted dye. The absorbance of each well was read on Elisa plate reader (Merck) at 570 nm. The spectrometer was calibrated to zero absorbance using culture medium without cells. The relative cell viability (%) related to control well containing cell culture medium without drug was calculated by [A]test/[A]control×100. % Growth Inhibition=[OD]control−[OD]test/[OD]control×100 Results: […]

5α-reductase = assay: In vivo effect on serum testosterone level (5α-reductase inhibitory activity), ELISA; parameters: species or system Sprague Dawley rats; details: for Serum levels of Testosterone, T: Sprague Dawley male rats, intraperitoneal, Finasteride 40 mg/kg and equimolar dose of compounds, 6 hr after treatment; for effect on serum testosterone level (in words): rats, 6 hr post dose, compared to control
Procedure: Animals (Sprague Dawley male rats weighing 150-200 g) were divided into 3 groups; vehicle (control), Finasteride (standard), treated (test sample) and each group consist of 5 animals. Sprague Dawley rats were treated intraperitoneally with Finasteride 40 mg/kg and equimolar dose of compounds. After 6 hr of treatment, blood was withdrawn by cardiac puncture under diethyl ether anesthesia and serum was separated from cells by centrifugation. Plasma testosterone values were obtained by ELISA plate reader at […] and are given in ng/ml.
The aliquots of 50 μl of each of standards, control and unknown (serum samples) were added to Testosterone Antibody coated wells. 100 μl of HRP-testosterone conjugate was added to all the wells and the plates were shaken gently on a shaker for proper mixing of the reagents. Following 4 hr of incubation at 37° C., the incubation mixture was removed. The wells were washed with phosphate buffer for 5-6 times (200 μl each time), followed by addition of 100 μl of TMB/H2O2 substrate in each of the wells. The plates were further incubated at 37° C. for 20 minutes. At the end of incubation reaction was stopped by using 100 μl of 0.5 M H2SO4 as stopping reagent. The absorbance of each well was read on Elisa plate reader at 450 nm [Rassaie, M. J.; Kumari, G. L.; Pandey, P. K.; Gupta, N.; Kochupillai, N.; Grover, P. K. Steroids 1992, 57, 288 and Hosoda, H.; Yoshida, H.; Sakai, Y.; Miyairi, S.; Nambara, T. Chem. Pharm. Bull. 1980, 28, 3035]
Intact male rats (Sprague Dawley, 200-250 g) were used in the designed study in which various compounds were compared for in vivo 5α-reductase inhibitory potency, as judged by the their ability to attenuate the conversion of testosterone into dihydrotestosterone (DHT). […] The procedure measure T equally well, and method met all the requirement of precision, accuracy, sensitivity and selectivity.

[4] = both, Balb C, mouse, 48 h, 0.01 μg/ml
[5] = both, Balb C, mouse, 48 h, 0.5 μg/ml
[6] = both, Balb C, mouse, 48 h, 1 μg/ml
[7] = both, Balb C, mouse, 48 h, 2 μg/ml
[8] = both, Balb C, mouse, 48 h, 5 μg/ml

Structure (SMILES) | % viable Cells (mean ± SEM) [1, 4] | % viable Cells (mean ± SEM) [1, 5] | % viable Cells (mean ± SEM) [1, 6] | % viable Cells (mean ± SEM) [1, 7] | % viable Cells (mean ± SEM) [1, 8] | CC50 at 48 h [2] | % growth inhibition (mean ± SEM) ([3]; 5.0 μg/ml) | antiproliferative activity (in words) [3] | inhibition at 0.01 µg/mL ([3]; 0.01 μg/ml) | inhibition at 0.5 µg/mL ([3]; 0.5 μg/ml) | inhibition at 1 µg/mL ([3]; 1.0 μg/ml) | inhibition at 2 µg/mL ([3]; 2.0 μg/ml) | inhibition at 5 µg/mL ([3]; 5.0 μg/ml) | Serum levels of Testosterone, T (5α-reductase) | effect on serum testosterone level (in words) (5α-reductase) | other results
C[C@]12CC[C@H](OC(=O)c3ccc([N+](=O)[O-])cc3)CC1=CC[C@@H]1[C@@H]2CC[C@]2(C)C(=NO)CC[C@@H]12 [Compound 11, 17-oximino-5-androsten-3β-yl 4-nitrobenzoate] | 88.79 ± 0.19% | 86.50 ± 0.107% | 76.74 ± 0.107% | 76.30 ± 0.46% | 75.85 ± 0.259% | 19.5 µM | 81.53 ± 1.79% | relatively less activity than above compounds but still better than Finasteride | 41.5 ± 0.71% | 60.5 ± 4.9% | 67.3 ± 3.7% | 74 ± 0.77% | 81 to 84% | 1.01 ng/mL | loss of activity | 
CC(C)(C)NC(=O)[C@H]1CC[C@H]2[C@@H]3CC[C@H]4NC(=O)C=C[C@]4(C)[C@H]3CC[C@]12C [Finasteride, reference compound] | 96.45 ± 0.36% | 94.20 ± 1.72% | 93.32 ± 0.59% | 81.18 ± 0.20% | 79.14 ± 0.312% | 28.2 µM | 78.51 ± 4.63% |  | 5 ± 1.58% | 8.83 ± 8.4% | 16.5 ± 2.49% | 36 ± 8.95% | 78% | 1.26 ± 0.02 ng/mL and 1.26 ng/mL |  | 
C[C@]12CC[C@H](O)CC1=CC[C@@H]1[C@@H]2CC[C@]2(C)C(=NO)CC[C@@H]12 [Parent Compound 9, 17-oximino-5-androsten-3β-ol] |  |  |  |  |  |  | Ni^a | not shown any significant inhibitory effect on cell proliferation; also recorded: not shown significant antiproliferative activity |  |  |  |  |  |  |  | % growth inhibition (mean ± SEM) ([3]; 0.01 μg/ml): Ni^a; % growth inhibition (mean ± SEM) ([3]; 0.5 μg/ml): Ni^a; % growth inhibition (mean ± SEM) ([3]; 1.0 μg/ml): Ni^a; % growth inhibition (mean ± SEM) ([3]; 2.0 μg/ml): Ni^a
C[C@]12CC[C@H](OC(=O)c3ccc(Cl)cc3)CC1=CC[C@@H]1[C@@H]2CC[C@]2(C)C(=NO)CC[C@@H]12 [Compound 10, 17-oximino-5-androsten-3β-yl 4-chlorobenzoate] | 88.22 ± 0.41% | 87.21 ± 0.46% | 77.40 ± 0.43% | 77.14 ± 0.21% | 73.149 ± 0.13% | 24 µM | 84.47 ± 0.74% | relatively less activity than above compounds but still better than Finasteride | 43.4 ± 0.77% | 57.1 ± 5.96% | 64.9 ± 7.4% | 69.2 ± 7.48% | 81 to 84% | 0.95 ng/mL | loss of activity | 
Cc1ccc(C(=O)O[C@H]2CC[C@@]3(C)C(=CC[C@@H]4[C@@H]3CC[C@]3(C)C(=NO)CC[C@@H]43)C2)cc1 [Compound 12, 17-oximino-5-androsten-3β-yl 4-methylbenzoate] | 79.39 ± 0.77% | 77.46 ± 0.75% | 73.03 ± 0.36% | 69.10 ± 0.84% | 65.26 ± 2.79% | 22 µM | 92.94 ± 0.13% | more potent than the reference Finasteride | 42.6 ± 2.21% | 63 ± 4.78% | 85 ± 3.99% | 89.5 ± 0.96% | > 90% | 1.16 ng/mL | increased activity | 
C[C@]12CC[C@H](OC(=O)COc3ccccc3)CC1=CC[C@@H]1[C@@H]2CC[C@]2(C)C(=NO)CC[C@@H]12 [Compound 16, 17-oximino-5-androsten-3β-yl phenoxyacetate] |  |  |  |  |  | 89 µM |  |  | 33.6 ± 7.66% | 24.2 ± 6.37% | 36.2 ± 9.85% | 76.5 ± 5.58% | 87.8 ± 1.11% | 0.85 ng/mL | Significant increase in level of serum testosterone level | % viable Cells (mean ± SEM) ([1]; mouse macrophages, 0.01 μg/ml): 80.79 ± 2.30%; % viable Cells (mean ± SEM) ([1]; mouse macrophages, 0.5 μg/ml): 78.32 ± 0.89%; % viable Cells (mean ± SEM) ([1]; mouse macrophages, 1.0 μg/ml): 77.04 ± 0.23%; % viable Cells (mean ± SEM) ([1]; mouse macrophages, 2.0 μg/ml): 77.31 ± 0.37%; % viable Cells (mean ± SEM) ([1]; mouse macrophages, 5.0 μg/ml): 77.37 ± 0.16%; toxicity to mouse macrophages (in words) ([1]; mouse macrophages, 0.01-5.0 μg/ml): non toxic to mouse macrophages

— patent publication US8435975B2, “Steroidal esters of 17-oximino-5-androsten-3beta-ol” (Council of Scientific & Industrial Research, priority 2007, dated 2013)
